For data set [1], the target named is T1, Bis(5'-adenosyl)-triphosphatase (Homo sapiens, UniProt P49789). As to the kind of experiment: Inhibition of recombinant human FHIT incubated for 1hr in presence of tokyogreen-labeled CMP probe by fluorescence based analysis.
Data set [2] is described as follows: Growth inhibition of human HCC827-luc cells incubated for 72 hrs by CCK-8 assay. In kind it is functional.
Data set [3] can be described thus: Growth inhibition of human NCI-H460-luc cells incubated for 72 hrs by CCK-8 assay. In kind it is functional. For orientation: Formazan colour is commonly taken as a measure of viable cells.
A short description of data set [4]: Dissociation constant, pKa of compound. In kind it is physicochemical.
In data set [5] the target is T1, Bis(5'-adenosyl)-triphosphatase. In words: Inhibition of recombinant human FHIT assessed as reduction in AP3Aase activity measured after 45 mins by HPLC analysis.
The target is the same in data set [6]. In words: Inhibition of human FHIT expressed in Escherichia coli BL21(DE3)-RIL cells using AP3A as substrate pretreated for 10 mins followed by substrate addition and measured after 1 hr by HPLC analysis.

T1 sequence (P49789 whole entry): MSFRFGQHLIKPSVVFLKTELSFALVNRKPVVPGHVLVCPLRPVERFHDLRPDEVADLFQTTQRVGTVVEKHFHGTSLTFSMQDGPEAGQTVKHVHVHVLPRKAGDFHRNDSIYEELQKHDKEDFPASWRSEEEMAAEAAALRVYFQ

For `O=C(O)c1ccc2[nH]c(-c3ccnc(-c4cccnc4)c3)nc2c1`, in data set [1], the IC50 is 1.58 µM.

For `O=C(COc1ccc2c3c(c(=O)oc2c1)CCCC3)NO`, the 50% growth inhibitory concentration (GI50) was 0.99 µM in data set [2] and 13 µM in data set [3]. Also, in data set [1], the concentration for half-maximal inhibition (IC50) was 5.5 µM.

With `Cc1c(OCc2nn[nH]n2)ccc2c3c(c(=O)oc12)CCC(C)C3` (configuration not stated), the IC50 in data set [1] came out at 4.66 µM.

Turning to `O=C(O)c1ccc(/C=N/NC(=O)c2nc(-c3ccccc3)n(-c3ccccc3)n2)cc1`, the IC50 in data set [1] was 3.73 µM.

Turning to `COCC(=O)N1CC[C@@H]2[C@H]1C(=O)NC[C@H](CCC(=O)OC)N2C`, in data set [1], the IC50 was determined as 4.24 µM.

For `CCOC(=O)c1c(C)sc(N)c1C(=O)OCC`, in data set [1], the IC50 is 1.01 µM.

Turning to `NNC(=O)COc1ccc2c3c(c(=O)oc2c1Br)CCCC3`, the GI50 in data set [2] and in data set [3] was over 100 µM throughout. Moreover, the IC50 in data set [1] worked out at 4 µM.

`Cc1ccccc1-c1c2ccc(=O)cc-2oc2cc(O)ccc12` displayed a pKa in data set [4] of 6.2.

On to `O=C(COc1cc2oc(=O)c3c(c2cc1Cl)CCCC3)NO`, for which the IC50 in data set [1] is 50 µM.

In data set [4], `O=c1cc(C(F)(F)F)c2cc(F)c(O)cc2o1` showed a pKa of 5.6.

`CC1(C)CC(=O)C2=C(C1)NC1=C(C(=O)c3ccccc31)C2c1ccc(Br)cc1` (configuration not stated): the half-maximal inhibitory concentration (IC50) in data set [5] was found to be 23 µM; in data set [1] it was 8.8 µM; in data set [6], 0.049 µM. Moreover, the concentration for 50% growth inhibition (GI50) in data set [2] and in data set [3] was over 10 µM in each case.

Take `CCc1c(OCC(=O)NO)ccc2c3c(c(=O)oc12)CCCC3`: the IC50 in data set [1] turned out to be 5.3 µM.

For `CC(=O)c1c(OCC(=O)NO)ccc2c3c(c(=O)oc12)CCCC3`, in data set [1], the half-maximal inhibitory concentration (IC50) turned out to be 8.1 µM.

On to `CN1C(=O)N/C(=C/c2cccn2-c2ccc(C(=O)O)cc2)C1=O`, for which the IC50 in data set [1] was determined as 0.77 µM.

As to `O=C(COc1ccc2c3c(c(=O)oc2c1Br)CCCC3)NO`, the results for the concentration for half-maximal inhibition (IC50) in data set [5] and in data set [1] were 0.06 µM and 0.12 µM, respectively. The GI50 in data set [2] came out at 0.87 µM; in data set [3], 5.9 µM.

As to `COc1c(OCC(=O)NO)ccc2c3c(c(=O)oc12)CCCC3`, the GI50 in data set [2] amounted to 5.3 µM; in data set [3], 29 µM. Further, the half-inhibitory concentration (IC50) in data set [1] turned out to be 2.8 µM.

Regarding `Cc1c(OCC(=O)NO)ccc2c3c(c(=O)oc12)CCCC3`, the values for the IC50 in data set [5] and in data set [1] were 0.14 µM and 1.9 µM, respectively. The concentration for 50% growth inhibition (GI50) in data set [2] was 2.6 µM; in data set [3], 15 µM.

With `Cc1c(OCC(=O)O)ccc2c3c(c(=O)oc12)CCCC3`, the 50% growth inhibitory concentration (GI50) in data set [2] and in data set [3] was over 100 µM throughout. For the same molecule, in data set [1], the IC50 was 11 µM.

For `Cc1cc(=O)oc2cc(O)c(F)cc12`, the pKa in data set [4] amounted to 6.3.

As for `NNC(=O)c1nn(-c2ccccc2)c(=O)cc1O`, the concentration for half-maximal inhibition (IC50) in data set [1] was found to be 3.98 µM.

As to `Cc1cc(=O)oc2c(C)c(OCC(=O)NO)ccc12`, the 50% growth inhibitory concentration (GI50) in data set [2] was determined as 9.5 µM; in data set [3] it was 66 µM. In addition, the concentration for half-maximal inhibition (IC50) in data set [1] came out at 41 µM.

As for `Cc1ccc(C(=O)Nc2ccc(S(=O)(=O)O)c3cc(S(=O)(=O)O)cc(S(=O)(=O)O)c23)cc1NC(=O)c1cccc(NC(=O)Nc2cccc(C(=O)Nc3cc(C(=O)Nc4ccc(S(=O)(=O)O)c5cc(S(=O)(=O)O)cc(S(=O)(=O)O)c45)ccc3C)c2)c1` [SURAMIN], the half-maximal inhibitory concentration (IC50) in data set [1] came out at 50 µM.

As to `O=C(COc1cc2oc(=O)c3c(c2cc1Br)CCCC3)NO`, in data set [1], the IC50 was 18 µM.

On to `O=C(Cn1cc([N+](=O)[O-])ccc1=O)NC(=O)NCc1ccco1`, for which the IC50 in data set [1] was determined as 3.43 µM.

For the molecule `Cc1c(OCc2nn[nH]n2)ccc2c3c(c(=O)oc12)CCCC3`, the GI50 in data set [2] and in data set [3] was over 100 µM in each case. Further, the IC50 in data set [1] came out at 5 µM.

What is called IC50 is the midpoint of a concentration-inhibition curve. One may read the GI50 as the concentration giving 50% growth inhibition. A low value points to more potent growth inhibition. As usually defined, the pKa is the negative logarithm of the acid dissociation constant. High values mean a weaker acid or stronger base, low ones a stronger acid or weaker base.

For the origin of these results see ChEMBL document CHEMBL5032508, “Synthesis of Fluorescent Probes Targeting Tumor-Suppressor Protein FHIT and Identification of Apoptosis-Inducing FHIT Inhibitors” (J Med Chem, 2021).
